Where two headings read alike, the source gives them in different places.
Experiments:
[1] = biological target: T1, intracellular tyrosinase in B16F10 cells (Mus musculus, UniProt P11344); assay: Recovery study of intracellular tyrosinase activity in B16F10 cells; assay type: cell-based; settings: for tyrosinase activity after removal of compound: 2 day recovery post 2 day exposure
T1 construct: endogenous in cells; host or cells: B16F10
T1 sequence (P11344 19-533): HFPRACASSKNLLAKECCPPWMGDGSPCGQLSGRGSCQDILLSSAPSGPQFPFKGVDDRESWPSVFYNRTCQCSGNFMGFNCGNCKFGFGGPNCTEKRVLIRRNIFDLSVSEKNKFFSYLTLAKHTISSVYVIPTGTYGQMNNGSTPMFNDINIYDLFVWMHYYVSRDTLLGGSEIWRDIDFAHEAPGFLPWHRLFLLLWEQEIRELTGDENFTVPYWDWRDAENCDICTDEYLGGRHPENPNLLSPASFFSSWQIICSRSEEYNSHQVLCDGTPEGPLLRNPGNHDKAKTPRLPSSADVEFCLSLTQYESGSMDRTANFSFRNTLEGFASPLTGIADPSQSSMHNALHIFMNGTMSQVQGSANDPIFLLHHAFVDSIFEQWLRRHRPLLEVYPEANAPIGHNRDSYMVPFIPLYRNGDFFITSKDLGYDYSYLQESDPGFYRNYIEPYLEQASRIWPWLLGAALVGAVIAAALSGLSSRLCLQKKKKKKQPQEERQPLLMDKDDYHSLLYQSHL
Description: In order to establish reversibility of tyrosinase inhibition by the CMCs, we conducted a “recovery” study over a 2 day interval using the highest concentrations of the compounds which produced maximum tyrosinase activity inhibition without toxicity. B16F10 were plated in six-well plates at 3.5×10^4 cells/well and compounds were added (PC-10 μM, CMC2.14-10 μM, CMC2.5-20 μM, CMC2.23-25 μM and CMC2.24 at 20 μM) next day. Tyrosinase activity in one set of cultures after detachment and lysis as described herein was estimated after 2 day exposure while another set of cultures were continued with fresh media without the compounds to study reversibility of tyrosinase activity inhibition for another 2 days. Results are expressed as % tyrosinase activity for both 2 day exposure and 2 day recovery post 2 day exposure.

[2] = system: HEM-DP cells; assay: Melanin content quantification in human epidermal melanocytes; assay type: cell-based; settings: 48 hours
Description: Primary cultures of human epidermal melanocytes from a darkly pigmented donor were seeded at 2.2×10^5 cells/well in 1.5 ml media in 12-well plates and incubated for 48 hours. The test compounds were added to cultures and controls were treated with 0.16% DMSO, and further incubated for another 48 hours. For evaluation of melanin content, cells in the wells were trypsinized and cell pellets were washed in PBS. After aspiration, 250 μL of 1N NaOH was added and heated to 70° C. to solubilize melanin. The aliquots were then transferred to a 96-well plate and absorbance was read at 475 nm using microplate reader. A portion of the lysate was used to evaluate total protein content using […] bincinchonic acid (BCA) assay (Pierce BCA kit, Thermo Scientific). The absorbance of melanin was normalized to the total protein content for each lysate and reported as % of control.

[3] = biological target: T2, cellular tyrosinase in HEM-DP cells (Homo sapiens, UniProt P14679); assay: Intracellular tyrosinase activity in human melanocytes; assay type: cell-based; settings: 48 hours
T2 construct: endogenous in cells; host or cells: HEM-DP (primary human epidermal melanocytes, darkly pigmented donor)
T2 sequence (P14679 19-529): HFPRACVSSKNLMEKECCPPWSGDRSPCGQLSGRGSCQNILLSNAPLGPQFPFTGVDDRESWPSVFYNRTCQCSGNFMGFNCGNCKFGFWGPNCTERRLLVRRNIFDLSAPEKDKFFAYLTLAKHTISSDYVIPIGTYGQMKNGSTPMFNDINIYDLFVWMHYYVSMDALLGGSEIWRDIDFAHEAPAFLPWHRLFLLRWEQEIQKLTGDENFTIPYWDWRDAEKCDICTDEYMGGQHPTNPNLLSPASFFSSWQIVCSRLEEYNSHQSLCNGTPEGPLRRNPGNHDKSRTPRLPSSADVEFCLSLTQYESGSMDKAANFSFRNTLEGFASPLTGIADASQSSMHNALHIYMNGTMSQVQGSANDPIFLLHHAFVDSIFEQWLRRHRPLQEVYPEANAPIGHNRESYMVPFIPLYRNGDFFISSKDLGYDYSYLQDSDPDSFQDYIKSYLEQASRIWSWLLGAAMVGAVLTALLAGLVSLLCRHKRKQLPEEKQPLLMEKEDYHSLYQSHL
Description: We quantitated the cellular tyrosinase activity of human melanocytes based on established methods. Briefly, human epidermal melanocytes from a darkly pigmented donor (HEM-DP) were cultured in 12-well tissue culture plates at density of 1.5×10^5 cells/well. After 48 hrs. media was changed and test compounds were added, and further incubated for 48 hrs. At the end of treatments, cells were trypsinized and cell pellets were washed in PBS and lysed with lysis buffer under ice for 30 minutes and then centrifuged to remove cellular debris. 50 μl of lysates were then aliquoted in 96-well microplate and 150 μl of freshly prepared 3 mM L-DOPA was added. The absorbance was then measured kinetically at 475 nm every 30 seconds for 30 minutes at 30° C. using microplate reader (Versamax®). The % inhibition of tyrosinase activity was calculated by determining melanin formation rates from the linear range of the slopes of melanin formation over time for the different samples and calculating % inhibition from the measured velocities of melanin formation.

[4] = biological target: T3, intracellular tyrosinase in HEM-DP cells (Homo sapiens, UniProt P14679); assay: Recovery study of intracellular tyrosinase activity in human melanocytes; assay type: cell-based
T3 construct: endogenous in cells; host or cells: HEM-DP (primary human epidermal melanocytes, darkly pigmented donor)
T3 sequence (P14679 19-529): T2 sequence (P14679 19-529)
Description: In order to study if the melanocytes could recover from inhibited tyrosinase activity after exposure to the CMCs, we employed a model for reversibility of inhibition of tyrosinase activity inhibition. This can establish safety of the compounds since irreversible inhibition of tyrosinase activity could damage melanocyte synthetic machinery with potential loss of the protective function of melanin. […] Briefly, HEM-DP were plated in 6-well plates at 2.3×10^5 cells/well and grown for 3 days and then CMCs were added. Tyrosinase activity was estimated after 2 day exposure in cellular lysates and another set of cultures were continued with fresh media without the compounds for further 5 days (with media change at day 3), in order to study reversibility of melanin inhibition.

[5] = system: B16F10 cells; assay: Melanin content quantification in B16F10 cells; assay type: cell-based, mouse; settings: for inhibition of melanin content / effect on melanin content (words): 48 hours; for effect on melanin content (words): B16F10, tested concentrations; for IC50: B16F10 cells exposed for 48 hours, non-linear curve fitting, read-out: IC50-Melanin Inhibition
Description: B16F10 cells were seeded at 1×10^5 cells/well in 1.5 ml media in 12-well plates and incubated for 24 hours. […] For quantification of melanin content, cells were trypsinized and cell pellets were washed in PBS. Cell pellets were also visually observed for lightening of the intracellular pigment. After aspiration, 250 μL of 1N NaOH was added and heated to 70° C. to solubilize melanin. The aliquots were then transferred to a 96-well plate and absorbance was read at 475 nm using a microplate reader. A portion of the lysate was used to evaluate total protein content using BCA assay. The melanin absorbance was normalized by total protein content and expressed as % of control.

[6] = system: HaCaT cells; settings: HaCaT, 48 hours
Description: Briefly, 2×10^4 cells/well were seeded in 96-well plates and after 24 hours, the compounds at concentrations of 5-25 μM were added to the wells and incubated for 48 hours. Absorbance was read after 1 hour of incubation of plates and results were expressed as % of control.

Structure (SMILES) | tyrosinase activity after removal of compound ([1]; B16F10, 20 μM) | reduction in melanin content ([2]; 20 μM) [%] | inhibition of cellular tyrosinase activity ([3]; 20 μM) [%] | reduction of tyrosinase activity at the exposure time ([4]; 20 μM, 2 day exposure) [%] | inhibition of melanin content ([5]; B16F10, 10 μM) [%] | effect on melanin content (words) [5] | IC50 [5] [µM] | loss of tyrosinase activity ([1]; B16F10, 10 μM, 2 day exposure) | tyrosinase activity after removal of compound ([1]; B16F10, 10 μM) [%] | stimulation of cell proliferation ([6]; 5 μM) [%] | stimulation of cell proliferation ([6]; 10 μM) [%] | inhibition of melanin content ([5]; B16F10, 25 μM) [%] | effect on melanin content (words) ([5]; listed as 2.23) | reduction in melanin content ([2]; 10 μM) [%] | inhibition of cellular tyrosinase activity ([3]; 5 μM) [%] | inhibition of cellular tyrosinase activity ([3]; 10 μM) [%] | recovery of tyrosinase activity ([4]; 5 days after removal, CMC2.24 10 μM, CMC2.23 and CMC2.5 20 μM) | stimulation of cell proliferation ([6]; 20 μM) [%]
COC(=O)C(C(=O)C=Cc1ccc(O)c(OC)c1)C(=O)C=Cc1ccc(O)c(OC)c1 (centres unmarked) [CMC2.5, 4-methoxycarbonyl curcumin] | completely recovered | ~20 | 16 | 12 |  |  |  |  |  |  |  |  |  |  |  |  |  | 
COC(=O)C(C(=O)/C=C/c1ccc(O)cc1)C(=O)/C=C/c1ccc(O)cc1 [CMC2.14] |  |  |  |  | 32.21 | moderate inhibition | 15.1 | up to 75% | 100 | 23.2 | 15.5 |  |  |  |  |  |  | 
COc1cc(/C=C/C(=O)C(C(=O)/C=C/c2ccc(O)c(OC)c2)C(=O)Nc2ccccc2)ccc1O [CMC2.23] |  | 20 | 49 |  |  | most potent inhibition | 24.1 |  |  |  | 11.3 | 46.4 | moderate inhibition | 20 | 25 | 35 | partially recovered | 22.9
